Measurements reported in the NIST ThermoML archive (doi:10.1021/je900974u).

Assays:
[1] = Crystal
[2] = molar heat capacity at constant pressure; conditions: 101.33 kPa, Liquid, Vacuum adiabatic calorimetry
[3] = Molar enthalpy of transition or fusion; conditions: Crystal; Adiabatic calorimetry

CCCCn1cc[n+](C)c1.N#CN=C=[N-] [1-butyl-3-methylimidazolium dicyanamide]
Conditions | Molar enthalpy of transition or fusion [kJ/mol] | Triple point temperature [K]
[1] | – | 270.83
[3] | 17.8 | –

[2]
Conditions | molar heat capacity at constant pressure [J/K/mol]
235.8 K | 355.9
237.81 K | 356.5
239.87 K | 356.9
241.93 K | 357.5
243.99 K | 357.9
246.05 K | 358.6
248.11 K | 359.2
249.31 K | 359.4
250.17 K | 359.8
251.33 K | 360.2
252.23 K | 360.4
253.39 K | 360.8
254.29 K | 360.8
255.46 K | 361.2
256.35 K | 361.4
257.53 K | 362
258.41 K | 362
259.59 K | 362.7
260.48 K | 362.7
261.66 K | 363.3
262.54 K | 363.5
263.72 K | 363.9
264.6 K | 364.1
265.79 K | 364.7
266.66 K | 364.7
267.86 K | 365.3
268.72 K | 365.3
269.92 K | 365.9
270.79 K | 366.1
271.99 K | 366.5
272.85 K | 366.8
274.05 K | 367.2
274.91 K | 367.4
276.12 K | 368
278.19 K | 368.6
280.25 K | 369.4
282.32 K | 370
284.39 K | 370.9
286.45 K | 371.5
288.52 K | 372.3
290.59 K | 372.9
292.65 K | 373.7
294.72 K | 374.5
296.78 K | 375.4
298.85 K | 376.2
300.92 K | 376.8
302.98 K | 377.6
305.05 K | 378.4
307.12 K | 379.1
309.18 K | 379.9
311.25 K | 380.7
313.32 K | 381.5
315.39 K | 382.3
317.46 K | 382.9
319.53 K | 383.8
321.6 K | 384.8
323.67 K | 385.6
325.73 K | 386.4
327.8 K | 387
329.87 K | 388.1
331.94 K | 388.9
334.01 K | 389.7
336.08 K | 390.5
338.15 K | 391.1
340.22 K | 392
342.29 K | 392.8
344.36 K | 393.6
346.43 K | 394.4
348.5 K | 395.5
350.57 K | 396.3
352.65 K | 397.1
354.72 K | 397.9
356.79 K | 398.9
358.86 K | 399.6
360.93 K | 400.6
363 K | 401.4
365.07 K | 402.2
367.14 K | 403.2

CCCCn1cc[n+](C)c1.F[B-](F)(F)F [1-butyl-3-methylimidazolium tetrafluoroborate]
[2]
Conditions | molar heat capacity at constant pressure [J/K/mol]
189.66 K | 332
191.85 K | 332.1
194.05 K | 332.1
196.25 K | 332.7
198.46 K | 332.8
200.67 K | 333.2
202.89 K | 333.7
205.12 K | 334
207.35 K | 334.5
209.58 K | 335
211.82 K | 335.5
214.06 K | 335.9
216.3 K | 336.8
218.55 K | 337.2
220.8 K | 337.8
223.05 K | 338.8
225.31 K | 339.2
227.56 K | 339.9
229.82 K | 340.4
232.09 K | 340.9
236.62 K | 342.8
238.89 K | 343.3
241.18 K | 344.4
243.46 K | 345.4
245.73 K | 345.8
248.01 K | 346.6
250.29 K | 347.5
252.57 K | 348.5
254.85 K | 349
257.13 K | 350.2
259.41 K | 351
261.7 K | 351.4
263.98 K | 352.6
266.27 K | 353.5
268.56 K | 354.6
270.84 K | 355.7
273.13 K | 356.4
275.42 K | 357.4
277.72 K | 358.3
280.02 K | 359.2
282.31 K | 360.2
284.6 K | 361.6
286.89 K | 362.1
289.17 K | 363.3
291.46 K | 364.2
293.74 K | 365.4
296.02 K | 366.3
298.3 K | 367
300.57 K | 368.2
302.84 K | 368.7
305.11 K | 370
307.38 K | 371.1
309.64 K | 372.6
311.9 K | 373.5
314.16 K | 374.2
316.43 K | 375.5
318.69 K | 376.9
320.95 K | 377.9
323.2 K | 378.9
325.45 K | 379.6
327.7 K | 381.1
329.95 K | 381.9
332.2 K | 382.6
334.45 K | 384.1
336.69 K | 384.9
338.94 K | 386
341.18 K | 387.3
343.42 K | 388.6
345.66 K | 389.8
347.9 K | 390.7
350.14 K | 391.8
352.38 K | 392.4
354.62 K | 393.9
356.85 K | 394.2
359.08 K | 395.7
361.31 K | 396.6
363.54 K | 397.9
365.76 K | 399
367.98 K | 400.1

CCCCn1cc[n+](C)c1.O=S(=O)([O-])C(F)(F)F [1-butyl-3-methylimidazolium trifluoromethanesulfonate]
Conditions | Molar enthalpy of transition or fusion [kJ/mol] | Triple point temperature [K]
[1] | – | 290.98
[3] | 19.4 | –

[2]
Conditions | molar heat capacity at constant pressure [J/K/mol]
292.86 K | 425
294.76 K | 425.9
296.65 K | 427
298.54 K | 427.9
300.43 K | 429.1
302.38 K | 429.6
304.36 K | 431.1
306.35 K | 431.9
308.34 K | 433.1
310.33 K | 434
312.32 K | 435.1
314.31 K | 436.3
316.3 K | 437.1
318.29 K | 438.3
320.27 K | 439.1
322.26 K | 440.6
324.25 K | 441.4
326.24 K | 442.6
328.22 K | 443.8
330.2 K | 444.6
332.19 K | 445.8
334.17 K | 446.9
336.15 K | 447.8
338.13 K | 448.9
340.11 K | 449.8
342.09 K | 451
344.07 K | 452.1
346.05 K | 453.3
348.03 K | 454.3
350 K | 455.5
351.98 K | 456.3
353.96 K | 457.8
355.94 K | 458.6
357.92 K | 459.5
359.89 K | 460.7
361.87 K | 462.1
363.84 K | 463
365.81 K | 464.1
367.78 K | 465
